In patent US9296758B2, “2-quinolinyl-acetic acid derivatives as HIV antiviral compounds” (GILEAD SCIENCES, INC., priority 2010, dated 2016):

Tested on: HIV-IIIb
Assay: Test A: Antiviral Assays in MT4 Cells
Assay type: cell-based
Details: MT-4 cells infected with HIV-IIIb (0.004 m.o.i.), 5 days of incubation, CellTiter-Glo chemiluminescence readout
Description: Test A: Antiviral Assays in MT4 Cells For the antiviral assay utilizing MT-4 cells, 0.4 μL of 189X test concentration of 3-fold serially diluted compound in DMSO was added to 40 μL of cell growth medium (RPMI 1640, 10% FBS, 1% penicillin/Streptomycin, 1% L-Glutamine, 1% HEPES) in each well of 384-well assay plates (10 concentrations) in quadruplicate. 1 mL aliquots of 2×10e6 MT-4 cells are pre-infected for 1 and 3 hrs respectively, @ 37° C. with 25 μL (MT4) or of either cell growth medium (mock-infected) or a fresh 1:250 dilution of an HIV-IIIb concentrated ABI stock (0.004 m.o.i. for MT4 cells). Infected and uninfected cells are diluted in cell growth medium and 35 uL of 2000 (for MT4) cells is added to each well of the assay plates. Assay plates were then incubated in a 37° C. incubator. After 5 days of incubation, 25 μl of 2× concentrated CellTiter-Glo™ Reagent (catalog #G7573, Promega Biosciences, Inc., Madison, Wis.) was added to each well of the assay plate. Cell lysis was carried out by incubating at room temperature for 2-3 min and then chemiluminescence was read using the Envision reader (PerkinElmer).

[1] = Human immunodeficiency virus 1, IIIB, MT4, 120 h

Compound	EC50 [1]	EC50
Cc1cc2nc(-c3cncn3C)ccc2c(-c2ccc3c4c(ccnc24)CCO3)c1[C@H](OC(C)(C)C)C(=O)O (atropisomer, axis not shown) [Compound 83, (S)-2-tert-Butoxy-2-((R)-5-(2,3-dihydropyrano[4,3,2-de]quinolin-7-yl)-7-methyl-2-(1-methyl-1H-imidazol-5-yl)quinolin-6-yl)acetic acid]	0.042 µM	–
Cc1cc2nc(-c3nccn3C)ccc2c(-c2ccc3c4c(ccnc24)CCO3)c1[C@H](OC(C)(C)C)C(=O)O (atropisomer, axis not shown) [Compound 84, (S)-2-tert-Butoxy-2-((R)-5-(2,3-dihydropyrano[4,3,2-de]quinolin-7-yl)-7-methyl-2-(1-methyl-1H-imidazol-2-yl)quinolin-6-yl)acetic acid]	0.33 µM	–
Cc1cc2nc(-c3cn(C)cn3)ccc2c(-c2ccc3c4c(ccnc24)CCO3)c1[C@H](OC(C)(C)C)C(=O)O (atropisomer, axis not shown) [Compound 85, (S)-2-tert-butoxy-2-((R)-5-(2,3-dihydropyrano[4,3,2-de]quinolin-7-yl)-7-methyl-2-(1-methyl-1H-imidazol-4-yl)quinolin-6-yl)acetic acid]	0.131 µM	–
Cc1cc2nc(N3CCC3)ccc2c(-c2ccc3c4c(ccnc24)CCO3)c1[C@H](OC(C)(C)C)C(=O)O (atropisomer, axis not shown) [Compound 95, (S)-2-((R)-2-(azetidin-1-yl)-5-(2,3-dihydropyrano[4,3,2-de]quinolin-7-yl)-7-methylquinolin-6-yl)-2-tert-butoxyacetic acid]	0.054 µM	–
Cc1ccc2c(-c3ccc4c(c3Cl)NCCO4)c([C@H](OC(C)(C)C)C(=O)O)c(C)cc2n1 (atropisomer, axis not shown) [Compound 105]	–	0.105 µM
Cc1ccc2c(-c3ccc4c5c(cccc35)CCO4)c([C@H](OC(C)(C)C)C(=O)O)c(C)cc2n1 (single isomer, unassigned) [Compound 102A]	–	0.013 µM
Cc1ccc2c(-c3ccc4c5c(cccc35)CCO4)c([C@H](OC(C)(C)C)C(=O)O)c(C)cc2n1 (single isomer, unassigned) [Compound 102B]	–	0.11 µM
Cc1ccc2c(-c3ccc(Cl)cc3)c([C@H](OC(C)(C)C)C(=O)O)c(Cl)cc2n1 [Compound 1L, (S)-2-tert-butoxy-2-(7-chloro-5-(4-chlorophenyl)-2-methylquinolin-6-yl)acetic acid]	0.17 µM	–
Cc1ccc2c(-c3ccc(Cl)cc3)c([C@H](OC(C)(C)C)C(=O)O)c(C)cc2n1 [Compound 2K, (S)-2-tert-butoxy-2-(5-(4-chlorophenyl)-2,7-dimethylquinolin-6-yl)acetic acid]	0.055 µM	–
Cc1cc2ncccc2c(-c2ccc(Cl)cc2)c1[C@H](OC(C)(C)C)C(=O)O [Compound 3L, (S)-2-tert-butoxy-2-(5-(4-chlorophenyl)-7-methylquinolin-6-yl)acetic acid]	1.06 µM	–
Cc1cc2cccnc2c(-c2ccc(Cl)cc2)c1[C@H](OC(C)(C)C)C(=O)O [Compound 4J, (S)-2-tert-butoxy-2-(8-(4-chlorophenyl)-6-methylquinolin-7-yl)acetic acid]	0.543 µM	–
Cc1ccc2c(-c3ccc(Cl)cc3Cl)c([C@H](OC(C)(C)C)C(=O)O)c(C)cc2n1 [Compound 5J, (S)-2-tert-butoxy-2-((S)-5-(2,4-dichlorophenyl)-2,7-dimethylquinolin-6-yl)acetic acid]	–	0.019 µM
Cc1ccc2c(-c3ccc4c5c(ccnc35)CCO4)c([C@H](OC(C)(C)C)C(=O)O)c(C)cc2n1 [Compound 6D, (S)-2-tert-butoxy-2-((R)-5-(2,3-dihydropyrano[4,3,2-de]quinolin-7-yl)-2,7-dimethylquinolin-6-yl)acetic acid]	–	0.02 µM
Cc1cc2nc(C(F)(F)F)ccc2c(-c2ccc(Cl)cc2)c1[C@H](OC(C)(C)C)C(=O)O [Compound 7J, (S)-2-tert-butoxy-2-(5-(4-chlorophenyl)-7-methyl-2-(trifluoromethyl)quinolin-6-yl)acetic acid]	0.16 µM	–
Cc1cc2[nH]c(=O)ccc2c(-c2ccc(Cl)cc2)c1[C@H](OC(C)(C)C)C(=O)O [Compound 8L, (S)-2-tert-butoxy-2-(5-(4-chlorophenyl)-7-methyl-2-oxo-1,2-dihydroquinolin-6-yl)acetic acid]	0.559 µM	–
Cc1cc2nc(CN(C)C)ccc2c(-c2ccc(Cl)cc2)c1[C@H](OC(C)(C)C)C(=O)O [Compound 9, (S)-2-tert-butoxy-2-(5-(4-chlorophenyl)-2-((dimethylamino)methyl)-7-methylquinolin-6-yl)acetic acid]	0.173 µM	–

Compound	EC50 [1]	EC50
CNCc1ccc2c(-c3ccc(Cl)cc3)c([C@H](OC(C)(C)C)C(=O)O)c(C)cc2n1 [Compound 10, (S)-2-tert-Butoxy-2-(5-(4-chlorophenyl)-7-methyl-2-((methylamino)methyl)quinolin-6-yl)acetic acid]	0.897 µM	–
Cc1cc2nc(CN3CCCCC3)ccc2c(-c2ccc(Cl)cc2)c1[C@H](OC(C)(C)C)C(=O)O [Compound 11, (S)-2-tert-Butoxy-2-(5-(4-chlorophenyl)-7-methyl-2-(piperidin-1-ylmethyl)quinolin-6-yl)acetic acid]	0.479 µM	–
COC(=O)c1ccc2c(-c3ccc(Cl)cc3)c([C@H](OC(C)(C)C)C(=O)O)c(C)cc2n1 [Compound 12, (S)-2-tert-Butoxy-2-(5-(4-chlorophenyl)-2-(methoxycarbonyl)-7-methylquinolin-6-yl)acetic acid]	0.21 µM	–
CCOC(=O)c1ccc2c(-c3ccc(Cl)cc3)c([C@H](OC(C)(C)C)C(=O)O)c(C)cc2n1 [Compound 13, (S)-2-tert-Butoxy-2-(5-(4-chlorophenyl)-2-(ethoxycarbonyl)-7-methylquinolin-6-yl)acetic acid]	0.15 µM	–
Cc1cc2nc(CN(C)c3ccccc3)ccc2c(-c2ccc(Cl)cc2)c1[C@H](OC(C)(C)C)C(=O)O [Compound 14, (S)-2-tert-Butoxy-2-(5-(4-chlorophenyl)-7-methyl-2-((methyl(phenyl)amino)methyl)quinolin-6-yl)acetic acid]	0.983 µM	–
CCOCc1ccc2c(-c3ccc(Cl)cc3)c([C@H](OC(C)(C)C)C(=O)O)c(C)cc2n1 [Compound 15, (S)-2-tert-butoxy-2-(5-(4-chlorophenyl)-2-(ethoxymethyl)-7-methylquinolin-6-yl)acetic acid]	0.334 µM	–
Cc1cc2nc(C(=O)N(C)C)ccc2c(-c2ccc(Cl)cc2)c1[C@H](OC(C)(C)C)C(=O)O [Compound 16, (S)-2-tert-Butoxy-2-(5-(4-chlorophenyl)-2-(dimethylcarbamoyl)-7-methylquinolin-6-yl)acetic acid]	0.22 µM	–
Cc1cc2nc(C(=O)N(C)c3ccccc3)ccc2c(-c2ccc(Cl)cc2)c1[C@H](OC(C)(C)C)C(=O)O [Compound 17, (S)-2-tert-butoxy-2-(5-(4-chlorophenyl)-7-methyl-2-(methyl(phenyl)carbamoyl)quinolin-6-yl)acetic acid]	0.359 µM	–
Cc1ccc2c(-c3ccc(-c4ccccc4)cc3)c(C(OC(C)(C)C)C(=O)O)c(C)cc2n1 (centres unmarked) [Compound 19, 2-(5-(Biphenyl-4-yl)-2,7-dimethylquinolin-6-yl)-2-tert-butoxyacetic acid]	53 µM	–
Cc1cc2nc(CN(C)C)ccc2c(-c2ccc3c4c(ccnc24)CCO3)c1[C@H](OC(C)(C)C)C(=O)O [Compound 20, (S)-2-tert-butoxy-2-((R)-5-(2,3-dihydropyrano[4,3,2-de]quinolin-7-yl)-2-((dimethylamino)methyl)-7-methylquinolin-6-yl)acetic acid]	–	1.74 µM
Cc1cc2nc(CO)ccc2c(-c2ccc3c4c(ccnc24)CCO3)c1[C@H](OC(C)(C)C)C(=O)O [Compound 21, (S)-2-tert-Butoxy-2-((R)-5-(2,3-dihydropyrano[4,3,2-de]quinolin-7-yl)-2-(hydroxymethyl)-7-methylquinolin-6-yl)acetic acid]	0.231 µM	–
Cc1cc2c(ccc(C)[n+]2[O-])c(-c2ccc3c4c(ccnc24)CCO3)c1[C@H](OC(C)(C)C)C(=O)O [Compound 22, (R)-6-((S)-tert-butoxy(carboxy)methyl)-5-(2,3-dihydropyrano[4,3,2-de]quinolin-7-yl)-2,7-dimethylquinoline 1-oxide]	1.07 µM	–
Cc1ccc2c(-c3ccc4c5c(ccnc35)CCO4)c([C@H](OC(C)(C)C)C(=O)O)c(C)cc2n1 [Compound 23, (S)-2-tert-Butoxy-2-((S)-5-(2,3-dihydropyrano[4,3,2-de]quinolin-7-yl)-2,7-dimethylquinolin-6-yl)acetic acid]	–	26.2 µM
Cc1cc2nc(C(=O)O)ccc2c(-c2ccc(Cl)cc2)c1[C@H](OC(C)(C)C)C(=O)O [Compound 24, (S)-6-(tert-Butoxy(carboxy)methyl)-5-(4-chlorophenyl)-7-methylquinoline-2-carboxylic acid]	29.8 µM	–
Cc1cc2nc(CN(C)C)ccc2c(C2=CCCCC2)c1[C@H](OC(C)(C)C)C(=O)O [Compound 25, (S)-2-tert-butoxy-2-(5-cyclohexenyl-2-((dimethylamino)methyl)-7-methylquinolin-6-yl)acetic acid]	0.346 µM	–
CCc1ccc2c(-c3ccc(Cl)cc3)c([C@H](OC(C)(C)C)C(=O)O)c(C)cc2n1 [Compound 26, (S)-2-tert-butoxy-2-(5-(4-chlorophenyl)-2-ethyl-7-methylquinolin-6-yl)acetic acid]	0.045 µM	–
